Experiment [1] has as its system L1210. The experiment is described as follows: Inhibition of thymidylate synthesis in L1210 intact cells at 10 uM. Type of experiment: functional. As to conditions: Mus musculus.
Experiment [2] has as its system L1210. The experiment is described as follows: Inhibition of thymidylate synthesis in L1210 cells at 100 uM. It counts as functional. As to conditions: Mus musculus.
The target in experiment [3] is Dihydrofolate reductase (Lactobacillus casei, UniProt P00381). Put plainly: Inhibitory activity against dihydrofolate reductase of Lactobacillus casei. Also on record: species or system Lacticaseibacillus casei.
Experiment [4] concerns Enterococcus faecium. The experiment is described as follows: Inhibitory activity against Streptococcus faecium ATCC 8043. It counts as functional, organism-based.
For experiment [5], the system named is Lacticaseibacillus casei. Put plainly: Inhibitory activity against Lactobacillus casei ATCC 7469. Type of experiment: functional, organism-based.
The subject of experiment [6] is Enterococcus faecium. Put plainly: Inhibitory activity against Streptococcus faecium MTX-resistant. Type of experiment: functional, organism-based.
Experiment [7] concerns L1210. The experiment is described as follows: Inhibition of thymidylate synthesis in permeabilised cells. Type of experiment: functional, cell-based. The settings on record: Mus musculus.
Experiment [8] deals with T1, Thymidylate synthase (Lactobacillus casei, UniProt P00469).
T1 sequence (P00469 whole entry): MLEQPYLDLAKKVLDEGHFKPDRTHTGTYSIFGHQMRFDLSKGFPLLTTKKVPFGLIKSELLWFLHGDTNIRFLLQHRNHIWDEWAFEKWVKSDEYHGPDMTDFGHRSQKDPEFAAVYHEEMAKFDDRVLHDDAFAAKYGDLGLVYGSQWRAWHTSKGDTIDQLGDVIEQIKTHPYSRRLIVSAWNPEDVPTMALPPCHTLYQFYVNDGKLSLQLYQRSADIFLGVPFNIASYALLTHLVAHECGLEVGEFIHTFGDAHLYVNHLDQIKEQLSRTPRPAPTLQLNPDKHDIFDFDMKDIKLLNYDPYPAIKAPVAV
The experiment is described as follows: Inhibitory activity against thymidylate synthase of Lactobacillus casei. Details: species or system Lacticaseibacillus casei.

The subject of experiment [9] is Lacticaseibacillus casei. The experiment is described as follows: Inhibitory activity against Lactobacillus casei MTX-resistant. Type of experiment: functional, organism-based.

Sequence of Dihydrofolate reductase (P00381 whole entry): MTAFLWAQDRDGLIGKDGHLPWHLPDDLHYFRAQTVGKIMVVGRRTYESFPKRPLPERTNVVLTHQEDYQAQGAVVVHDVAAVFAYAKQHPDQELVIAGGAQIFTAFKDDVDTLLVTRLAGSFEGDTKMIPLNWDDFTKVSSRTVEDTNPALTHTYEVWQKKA

On to `C#CN(Cc1ccc2nc(N)nc(O)c2c1)c1ccc(C(=O)NC(CCC(=O)O)C(=O)NC(CCC(=O)NC(CCC(=O)NC(CCC(=O)O)C(=O)O)C(=O)O)C(=O)O)cc1` (stereo unspecified), for which the inhibition (commonly the change of the read-out against control, counted positive when it falls) at 10 µM in [1] is 0%. Also, the inhibition at 100 µM in [2] turned out to be 3%. In addition, the half-maximal inhibitory concentration (IC50) (in general, the concentration at which inhibition is half-maximal) in experiment [3] is 3.7 µM; in experiment [4], 0.075 µM; in experiment [5] it was 0.18 nM; in experiment [6], > 0.8 µM; in experiment [7] it was 0.0014 µM; in experiment [8], 0.014 µM. Moreover, the IC50 in experiment [9] is > 20 µM.
Regarding `Nc1nc(O)c2cc(CN(CC3CC3)c3ccc(C(=O)N[C@@H](CCC(=O)O)C(=O)O)cc3)ccc2n1`, the half-inhibitory concentration (IC50) amounted to 2.3 µM in experiment [3]; 0.0026 µM in experiment [4]; 8.1 nM in experiment [5]; 1.5 µM in experiment [6]; 82 µM in experiment [7]; 12 µM in experiment [8]. Further, in experiment [9], the IC50 was > 20 µM.
Consider `CN(Cc1cnc2nc(N)nc(N)c2n1)c1ccc(C(=O)N[C@@H](CCC(=O)O)C(=O)O)cc1` [METHOTREXATE], for which the inhibition at 10 µM in [1] is 95%. The compound also gave an inhibition at 100 µM in experiment [2] of 98%. Also, the IC50 in experiment [4] was 0.0003 µM; in [5] it was 0.03 nM; in experiment [6], 3.9 µM; in experiment [7], 60 µM; in experiment [9], > 1000 µM.
In [1], `C#CN(Cc1ccc2nc(N)nc(O)c2c1)c1ccc(C(=O)NC(CCC=O)C(=O)O)cc1` (stereo unspecified) returned an inhibition at 10 µM of 55%. The compound also yielded an inhibition at 100 µM in [2] of 87%. Further, the half-maximal inhibitory concentration (IC50) in experiment [4] is 0.00013 µM; in experiment [5], 0.4 nM; in [6], 0.02 µM; in experiment [7] it was 0.03 µM.
Consider `CC#CCN(Cc1ccc2nc(N)nc(O)c2c1)c1ccc(C(=O)N[C@@H](CCC(=O)O)C(=O)O)cc1`, for which the IC50 worked out at 250 µM in experiment [3]; 0.0067 µM in experiment [4]; 86 nM in experiment [5]; 1.6 µM in experiment [6]; 14 µM in experiment [7]; 4.4 µM in experiment [8]. Further, the 50% inhibitory concentration (IC50) in experiment [9] is > 20 µM.
`C#CN(Cc1ccc2nc(N)nc(O)c2c1)c1ccc(C(=O)NC(CCC(=O)O)C(=O)NC(CCC(=O)O)C(=O)O)cc1` (stereo unspecified): in [1], the inhibition at 10 µM stood at 0%. In addition, testing at 100 µM in experiment [2] gave an inhibition of 32%. For the same compound, the half-inhibitory concentration (IC50) in experiment [4] is 0.00036 µM; in [5] it was 0.05 nM; in experiment [6] it was 0.125 µM; in experiment [7], 0.006 µM; in experiment [9] it was 0.28 µM.
In turn, `C#CN(Cc1ccc2nc(N)nc(O)c2c1)c1ccc(C(=O)NC(CCC(=O)NC(CCC(=O)NC(CCC(=O)O)C(=O)O)C(=O)O)C(=O)O)cc1` (stereo unspecified) yielded an inhibition at 10 µM in experiment [1] of 0%. This compound also displayed an inhibition at 100 µM in [2] of 8%. Besides, the IC50 is 5.3 µM in experiment [3]; 0.034 µM in [4]; 0.08 nM in experiment [5]; > 0.8 µM in experiment [6]; 0.002 µM in experiment [7]; 0.014 µM in experiment [8]. Moreover, in experiment [9], the half-maximal inhibitory concentration (IC50) was 1.1 µM.
Consider `C#CN(Cc1ccc2nc(N)nc(O)c2c1)c1ccc(C(=O)NC(CCC(=O)O)C(=O)NC(CCC(=O)NC(CCC(=O)NC(CCC(=O)NC(CCC(=O)O)C(=O)O)C(=O)O)C(=O)O)C(=O)O)cc1` (stereo unspecified), for which 10 µM produced 0% inhibition in experiment [1]. This compound returned an inhibition at 100 µM in [2] of 8%. In addition, the IC50 was 2.9 µM in experiment [3]; > 0.08 µM in [4]; 0.35 nM in [5]; > 0.8 µM in experiment [6]; 0.002 µM in [7]; 0.013 µM in [8]. Besides, in experiment [9], the IC50 is > 20 µM.

The values above are taken from ChEMBL document CHEMBL1123439, “Folate analogues. 26. Syntheses and antifolate activity of 10-substituted derivatives of 5,8-dideazafolic acid and of the poly-gamma-glutamyl metabolites of N10-propargyl-5,8-dideazafolic acid (PDDF)” (J Med Chem, 1986).
